From PubChem BioAssay AID2060510 (Molecular Pharmacology Branch, DTP, NCI, 2025)
Values belong to the molecule of their own block, whether it stands above or below them.

Tested on: 439559-082-T-J2-PDC spheroids viability
Test: Anticancer human tumor 439559-082-T-J2-PDC patient-derived colon adenocarcinoma cell line growth inhibition [GQUAD]
Conditions: for IC50: curve of first compound; for viability, T/C: stronger effect = lower value
Description: DNA G-quadruplex Stabilizer Agents in Combinations in Complex Spheroids
A high-throughput screen of multi-cell type tumor spheroids was designed to identify active combinations of DNA G-quadruplex stabilizer agents and targeted small molecules. Complex spheroids include a stromal component modeled by human endothelial cells (HUVEC) and fibroblasts modeled by human mesenchymal stem cells (MSCs). The concentration ranges selected for each drug and investigational agent were based upon clinically achievable concentrations if the clinical Cmax of the agent was known.
Compounds. The drugs and investigational agents: pidnarulex (CX-5461; NSC782164), APTO-253 (NSC789042), BRACO-19 (NSC847499), peposertib (NSC802822), ceralasertib (NSC780249), elimusertib (NSC800525), camonsertib (NSC841442), AZD-1390 (NSC803789), olaparib (NSC753686), talazoparib (NSC767125), ART-558 (NSC835418), sotorasib (NSC818433), MRTX-1133 (NSC836407), SN-38 (NSC673596), topotecan (NSC609699), etoposide (NSC141540), doxorubicin (NSC123127), gemcitabine (NSC613327), 5-fluorouracil (NSC19893), paclitaxel (NSC125973), vemurafenib (NSC761431), panobinostat (NSC761190), R-306465 (JNJ-16241199; NSC773264), adavosertib (NSC754352), TP-3654 (NSC805149), carboplatin (NSC241240), KSQ-4279 (NSC840948), and staurosporine (NSC755774) were obtained from the National Cancer Institute (NCI) Developmental Therapeutics Program Chemical Repository (34). The FDA-approved anticancer drug set is available from the NCI Developmental Therapeutics Program. […] The stock solutions were prepared in dimethyl sulfoxide (DMSO, Sigma-Aldrich, St. Louis, MO, cat. D2650) at 800-fold the tested concentration and stored at -70 degrees C prior to their use. All drugs and investigational agents were tested over a range starting from a high concentration at or near the clinical Cmax and decreasing in half-log increments. If the clinical Cmax for an agent had not been determined, the highest concentration tested was 10 microM.
2.3 Cell Culture. All cells were maintained in an incubator at 37 degrees C and 5% CO2 with 95% humidity. The PDC lines were cultured according to standard operating procedures established by the NCI PDMR. All PDCs were thawed and cultured in Matrigel-coated flasks prepared with a working solution of 1X Ham's F-12 nutrient mix, without supplementation (Invitrogen, cat. 11765054), 100 U/mL penicillin-streptomycin (Invitrogen, cat. 15140122), and 2.5% Matrigel (Corning Inc., cat. 354248) for the first three passages. The 857933-349-R-J2-PDC line was cultured in 6C/Colon 1B media, which includes advanced DMEM/F-12 (Thermo Fisher Scientific, cat. 12634028), 10 mM HEPES (Thermo Fisher Scientific, cat. 15630080), 1X GlutaMAX supplement (Thermo Fisher Scientific, cat. 35050061), 0.1 mg/mL primocin (InvivoGen, cat. ant-pm-2), 10% defined fetal bovine serum, heat inactivated (HyClone Laboratories Inc., cat. SH30070.03HI), 50% L-WRN conditioned media (ATCC, cat. CRL-3276), 1.25 mM N-Acetyl-L-cysteine (Sigma-Aldrich, cat. A9165), 10 mM nicotinamide (Sigma-Aldrich, cat. N0636), 1X B-27 supplement (Thermo Fisher Scientific, cat. 17504044), 1X N-2 supplement (Thermo Fisher Scientific, cat. 17502048), 10 microM Y-27632 dihydrochloride (Tocris Bioscience, cat. 1254), and 50 ng/mL human EGF recombinant protein (Thermo Fisher Scientific, cat. PHG0311). The 485176-168-R4-J1-PDC line was cultured in Panc media, which includes all 6C/Colon 1B media components plus 100 ng/mL human FGF-10 (Thermo Fisher Scientific, cat. 100-26), 500 nM SB-431542 (Selleckchem, cat. S1067), and gastrin (Tocris, cat. 3006).
[…]

[1] = second compound 0.0316 µM, first compound 0.0316 µM
[2] = second compound 0.0316 µM, first compound 0.316 µM
[3] = second compound 0.1 µM, first compound 0.0316 µM
[4] = second compound 0.1 µM, first compound 0.316 µM
[5] = second compound 0.316 µM, first compound 0.0316 µM
[6] = second compound 0.316 µM, first compound 0.316 µM
[7] = second compound 1 µM, first compound 0.0316 µM
[8] = second compound 1 µM, first compound 0.316 µM
[9] = second compound 3.16 µM, first compound 0.0316 µM
[10] = second compound 3.16 µM, first compound 0.316 µM
[11] = second compound 10 µM, first compound 0.0316 µM
[12] = second compound 10 µM, first compound 0.316 µM
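Note: spheroids exposed to the agents for 7 days before readout.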
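Throughout, for viability, T/C: percent of luminescence signal in DMSO vehicle wells taken as 100% viability.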

IC50 (second compound 0.0316 µM): 2.82 µM
IC50 (second compound 0.1 µM): 3.41 µM
IC50 (second compound 0.316 µM): 3.38 µM
IC50 (second compound 1 µM): 3.3 µM
IC50 (second compound 3.16 µM): 5.1 µM
IC50 (second compound 10 µM): 4.09 µM
Compound: CC(=O)O[C@H]1C(=O)[C@@]2(C)[C@H]([C@H](OC(=O)c3ccccc3)[C@]3(O)C[C@H](OC(=O)[C@H](O)[C@@H](NC(=O)c4ccccc4)c4ccccc4)C(C)=C1C3(C)C)[C@]1(OC(C)=O)CO[C@@H]1C[C@@H]2O + Cc1cnc(CNC(=O)c2c(=O)c3ccc(N4CCCN(C)CC4)nc3n3c2sc2ccccc23)cn1
viability, T/C [1]: 89.9%
viability, T/C (second compound 0.0316 µM, first compound 0.1 µM): 89.1%
viability, T/C [2]: 81.3%
viability, T/C (second compound 0.0316 µM, first compound 1 µM): 74.2%
viability, T/C (second compound 0.0316 µM, first compound 3.16 µM): 46.1%
viability, T/C (second compound 0.0316 µM, first compound 10 µM): 39.6%
viability, T/C [3]: 97.5%
viability, T/C (second compound 0.1 µM, first compound 0.1 µM): 88%
viability, T/C [4]: 70.7%
viability, T/C (second compound 0.1 µM, first compound 1 µM): 70%
viability, T/C (second compound 0.1 µM, first compound 3.16 µM): 46%
viability, T/C (second compound 0.1 µM, first compound 10 µM): 40.5%
viability, T/C [5]: 90.3%
viability, T/C (second compound 0.316 µM, first compound 0.1 µM): 81.2%
viability, T/C [6]: 78.2%
viability, T/C (second compound 0.316 µM, first compound 1 µM): 65.8%
viability, T/C (second compound 0.316 µM, first compound 3.16 µM): 49.3%
viability, T/C (second compound 0.316 µM, first compound 10 µM): 39.2%
viability, T/C [7]: 74.7%
viability, T/C (second compound 1 µM, first compound 0.1 µM): 72.8%
viability, T/C [8]: 76.6%
viability, T/C (second compound 1 µM, first compound 1 µM): 61.8%
viability, T/C (second compound 1 µM, first compound 3.16 µM): 51.8%
viability, T/C (second compound 1 µM, first compound 10 µM): 42.9%
viability, T/C [9]: 62.2%
viability, T/C (second compound 3.16 µM, first compound 0.1 µM): 73.1%
viability, T/C [10]: 72.5%
viability, T/C (second compound 3.16 µM, first compound 1 µM): 58.9%
viability, T/C (second compound 3.16 µM, first compound 3.16 µM): 54.7%
viability, T/C (second compound 3.16 µM, first compound 10 µM): 42.4%
viability, T/C [11]: 64.8%
viability, T/C (second compound 10 µM, first compound 0.1 µM): 57.1%
viability, T/C [12]: 61.1%
viability, T/C (second compound 10 µM, first compound 1 µM): 56%
viability, T/C (second compound 10 µM, first compound 3.16 µM): 55.3%
viability, T/C (second compound 10 µM, first compound 10 µM): 36.6%

IC50 (second compound 0.0316 µM): > 0.316 µM
IC50 (second compound 0.1 µM): > 0.316 µM
IC50 (second compound 0.316 µM): > 0.316 µM
IC50 (second compound 1 µM): > 0.316 µM
IC50 (second compound 3.16 µM): > 0.316 µM
IC50 (second compound 10 µM): > 0.316 µM
Compound: CC[C@@]1(O)C(=O)OCc2c1cc1n(c2=O)Cc2cc3c(CN(C)C)c(O)ccc3nc2-1 + Cc1cnc(CNC(=O)c2c(=O)c3ccc(N4CCCN(C)CC4)nc3n3c2sc2ccccc23)cn1
viability, T/C (second compound 0.0316 µM, first compound 0.000999 µM): 98.9%
viability, T/C (second compound 0.0316 µM, first compound 0.00316 µM): 89.6%
viability, T/C (second compound 0.0316 µM, first compound 0.00999 µM): 94.6%
viability, T/C [1]: 88.7%
viability, T/C (second compound 0.0316 µM, first compound 0.0999 µM): 82.4%
viability, T/C [2]: 81.9%
viability, T/C (second compound 0.1 µM, first compound 0.000999 µM): 91.7%
viability, T/C (second compound 0.1 µM, first compound 0.00316 µM): 81.5%
viability, T/C (second compound 0.1 µM, first compound 0.00999 µM): 96.5%
viability, T/C [3]: 95.8%
viability, T/C (second compound 0.1 µM, first compound 0.0999 µM): 83%
viability, T/C [4]: 81.8%
viability, T/C (second compound 0.316 µM, first compound 0.000999 µM): 79.7%
viability, T/C (second compound 0.316 µM, first compound 0.00316 µM): 85.2%
viability, T/C (second compound 0.316 µM, first compound 0.00999 µM): 79.5%
viability, T/C [5]: 75.8%
viability, T/C (second compound 0.316 µM, first compound 0.0999 µM): 83.4%
viability, T/C [6]: 69%
viability, T/C (second compound 1 µM, first compound 0.000999 µM): 73.5%
viability, T/C (second compound 1 µM, first compound 0.00316 µM): 70.3%
viability, T/C (second compound 1 µM, first compound 0.00999 µM): 74.5%
viability, T/C [7]: 79.1%
viability, T/C (second compound 1 µM, first compound 0.0999 µM): 80%
viability, T/C [8]: 67.4%
viability, T/C (second compound 3.16 µM, first compound 0.000999 µM): 71.5%
viability, T/C (second compound 3.16 µM, first compound 0.00316 µM): 72%
viability, T/C (second compound 3.16 µM, first compound 0.00999 µM): 68.6%
viability, T/C [9]: 71.4%
viability, T/C (second compound 3.16 µM, first compound 0.0999 µM): 72.8%
viability, T/C [10]: 66.9%
viability, T/C (second compound 10 µM, first compound 0.000999 µM): 64.3%
viability, T/C (second compound 10 µM, first compound 0.00316 µM): 71.8%
viability, T/C (second compound 10 µM, first compound 0.00999 µM): 66.6%
viability, T/C [11]: 70.7%
viability, T/C (second compound 10 µM, first compound 0.0999 µM): 66.4%
viability, T/C [12]: 61.1%
